The results in this text go back to patent US20200108070A2, “INHIBITORS OF FIBROBLAST GROWTH FACTOR RECEPTOR AND USE THEREOF” (Nanjing TransThera Biosciences Co. Ltd., priority 2016, published 2020).

The target of one test is FGFR1 (Homo sapiens, UniProt P11362). In words: Enzymatic activity test (LabChip EZ Reader II / Caliper), FGFR1. Format: biochemical. The following applies: FGFR1(h), FAM-labelled polypeptide substrate and ATP, 30 min incubation; read-out: Inhibitory activity against FGFR (IC50) FGFR1. On the procedure:
(§1) Experimental Example 1: Enzymatic Activity Test of the Compounds of the Present Invention
(§2) Test substance: The compounds of the present invention, the structures of which are shown above.
(§3) Test Instrument: The LabChip EZ Reader II drug screening platform.
(§4) 1. Preparation for compound plate a) 96-well plates, 10 dose groups, 3-fold serial dilutions, added DMSO to each well, maximal concentration of 500 μM. b) 384-well plates, diluted with 1× kinase buffer (50 mM HEPES, pH 7.5; 0.0015% Brij-35; 2 mM DTT), each well containing 5× compound dissolved in 5 μL of 10% DMSO. The negative control well was 5 μL of 1× kinase buffer containing 10% DMSO. 2. Experimental procedure
(§5) […] in 1× kinase buffer were reacted with 2.5× enzyme solution at room temperature for 10 min, and then the FAM-labelled polypeptide substrate and ATP were added to initiate reaction. After incubation for 30 min, 25 μL of terminal solution (100 mM HEPES, pH 7.5; 0.015% Brij-35; 0.2% Coating Reagent #3; 50 mM EDTA) was added to terminate the reaction, and the final data were read by Caliper.

The target of a further test is FGFR2 (Homo sapiens, UniProt P21802). In words: Enzymatic activity test (LabChip EZ Reader II / Caliper), FGFR2. Format: biochemical. The following applies: FGFR2(h), FAM-labelled polypeptide substrate and ATP, 30 min incubation; read-out: Inhibitory activity against FGFR (IC50) FGFR2. On the procedure:
as §1, §2, §3, §4, §5

The target of a further test is FGFR3 (Homo sapiens, UniProt P22607). The test is described as follows: Enzymatic activity test (LabChip EZ Reader II / Caliper), FGFR3. Type of test: biochemical. The following applies: FGFR3(h), FAM-labelled polypeptide substrate and ATP, 30 min incubation; read-out: Inhibitory activity against FGFR (IC50) FGFR3. On the procedure:
as §1, §2, §3, §4, §5

The target in the next test is FGFR4 (Homo sapiens, UniProt P22455). In words: Enzymatic activity test (LabChip EZ Reader II / Caliper), FGFR4. Format: biochemical. The following applies: FGFR4(h), FAM-labelled polypeptide substrate and ATP, 30 min incubation; read-out: Inhibitory activity against FGFR (IC50) FGFR4. On the procedure: as §1, §2, §3, §4, §5
For a further test, the system named is Hep3B. In words: Cellular activity test (Cell titer-Glo), Hep3B. Type of test: cell-based. The following applies: Homo sapiens, hepatocellular carcinoma cell with abnormal FGFR, 72 h, read-out: Inhibitory activity against cells (IC50) Hep3B.
Description: (§6) Experimental Example 2: Celluar Activity Test of the Compounds of the Present Invention
(§7) Hep3B is a cell with abnormal FGFR in hepatocellular carcinoma RT112/84 is a cell with abnormal FGFR in bladder cancer DMS114 is a cell with abnormal FGFR in small cell lung cancer AN3CA is a cell with abnormal FGFR in endometrial cancer SNU-16 is a cell with abnormal FGFR in gastric cancer
as §2
(§8) Test instrument: The Espire multi-function microplate reader.
(§9) Each cell line was seeded into a 96-well plate, and adherent cultured overnight. Then, the compounds at different concentrations (12 dose groups, 3× DMSO serial dilutions) were added to a final concentration of 0.17-30000 nM, with the final content of DMSO of 5‰. The negative control well was medium containing 5‰ DMSO. After incubation at 37° C., 5% CO2, 95% humidity for 72 h, the cultures would be test. 30 μL of Cell titer-Glo reagent was added to each well and incubated for 30 min at room temperature. The final data were read by Espire microplate reader.

The next test relates to RT112/84. The test is described as follows: Cellular activity test (Cell titer-Glo), RT112/84. Type of test: cell-based. The note with it: Homo sapiens, RT112/84, bladder cancer cell with abnormal FGFR, 72 h, read-out: Inhibitory activity against cells (IC50) RT112/84.
Description: as §6, §7, §2, §8, §9
Background: In ATP-based viability assays light output follows the ATP content of the culture.

In the next test the test system is DMS114. In words: Cellular activity test (Cell titer-Glo), DMS114. The following applies: Homo sapiens, DMS-114, DMS114, small cell lung cancer cell with abnormal FGFR, 72 h, read-out: Inhibitory activity against cells (IC50) DMS114. Type of test: cell-based.
Description: as §6, §7, §2, §8, §9

In the next test the test system is AN3CA. The test is described as follows: Cellular activity test (Cell titer-Glo), AN3CA. Format: cell-based. The following applies: Homo sapiens, AN3-CA, endometrial cancer cell with abnormal FGFR, 72 h, read-out: Inhibitory activity against cells (IC50) AN3CA.
Description: as §6, §7, §2, §8, §9

The next test concerns SNU-16. In words: Cellular activity test (Cell titer-Glo), SNU-16. Format: cell-based. The note with it: Homo sapiens, SNU-16, gastric cancer cell with abnormal FGFR, 72 h, read-out: Inhibitory activity against cells (IC50) SNU-16.
Description: as §6, §7, §2, §8, §9

Sequence of FGFR2 (P21802 22-821): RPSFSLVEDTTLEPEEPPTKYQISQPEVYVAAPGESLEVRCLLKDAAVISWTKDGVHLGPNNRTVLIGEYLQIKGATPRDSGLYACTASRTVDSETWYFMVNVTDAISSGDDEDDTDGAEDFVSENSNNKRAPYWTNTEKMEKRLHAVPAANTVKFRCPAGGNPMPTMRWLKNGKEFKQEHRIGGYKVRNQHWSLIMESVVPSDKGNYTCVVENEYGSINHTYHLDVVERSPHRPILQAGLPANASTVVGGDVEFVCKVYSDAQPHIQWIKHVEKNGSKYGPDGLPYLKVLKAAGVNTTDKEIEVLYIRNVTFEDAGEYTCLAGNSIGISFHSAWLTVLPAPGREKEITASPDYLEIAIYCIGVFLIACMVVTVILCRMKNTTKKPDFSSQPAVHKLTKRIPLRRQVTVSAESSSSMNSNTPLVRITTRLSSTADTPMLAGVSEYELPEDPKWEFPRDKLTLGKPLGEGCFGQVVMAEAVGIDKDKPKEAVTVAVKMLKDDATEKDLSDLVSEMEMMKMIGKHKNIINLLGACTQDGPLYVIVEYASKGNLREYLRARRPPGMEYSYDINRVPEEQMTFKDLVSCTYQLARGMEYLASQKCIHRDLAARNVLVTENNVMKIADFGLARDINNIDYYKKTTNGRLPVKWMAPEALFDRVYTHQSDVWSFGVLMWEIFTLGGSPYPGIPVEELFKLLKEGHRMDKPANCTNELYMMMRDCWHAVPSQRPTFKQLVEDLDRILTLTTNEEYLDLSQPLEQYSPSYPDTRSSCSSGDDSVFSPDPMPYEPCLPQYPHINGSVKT
Sequence of FGFR1 (P11362 22-822): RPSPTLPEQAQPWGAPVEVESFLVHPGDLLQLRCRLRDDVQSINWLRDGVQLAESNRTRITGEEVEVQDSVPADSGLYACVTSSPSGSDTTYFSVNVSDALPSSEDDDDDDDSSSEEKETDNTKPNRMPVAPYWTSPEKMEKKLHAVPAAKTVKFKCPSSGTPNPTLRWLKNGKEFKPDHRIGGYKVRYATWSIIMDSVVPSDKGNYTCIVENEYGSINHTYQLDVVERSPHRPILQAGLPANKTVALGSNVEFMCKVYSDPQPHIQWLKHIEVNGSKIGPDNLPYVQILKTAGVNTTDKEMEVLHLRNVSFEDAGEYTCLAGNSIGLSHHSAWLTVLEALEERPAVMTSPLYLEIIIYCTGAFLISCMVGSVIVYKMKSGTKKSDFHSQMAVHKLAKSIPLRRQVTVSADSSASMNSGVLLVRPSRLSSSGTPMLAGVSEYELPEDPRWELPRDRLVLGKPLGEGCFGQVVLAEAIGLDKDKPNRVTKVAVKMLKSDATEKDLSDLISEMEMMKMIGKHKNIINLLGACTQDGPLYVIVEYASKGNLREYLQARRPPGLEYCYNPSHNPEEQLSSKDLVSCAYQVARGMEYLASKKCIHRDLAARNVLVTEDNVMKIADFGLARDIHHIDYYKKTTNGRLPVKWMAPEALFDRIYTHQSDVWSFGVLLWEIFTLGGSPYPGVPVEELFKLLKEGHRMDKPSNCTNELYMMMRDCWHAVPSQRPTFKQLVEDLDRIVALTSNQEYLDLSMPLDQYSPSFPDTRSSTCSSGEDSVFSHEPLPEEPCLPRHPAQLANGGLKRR
Sequence of FGFR4 (P22455 22-802): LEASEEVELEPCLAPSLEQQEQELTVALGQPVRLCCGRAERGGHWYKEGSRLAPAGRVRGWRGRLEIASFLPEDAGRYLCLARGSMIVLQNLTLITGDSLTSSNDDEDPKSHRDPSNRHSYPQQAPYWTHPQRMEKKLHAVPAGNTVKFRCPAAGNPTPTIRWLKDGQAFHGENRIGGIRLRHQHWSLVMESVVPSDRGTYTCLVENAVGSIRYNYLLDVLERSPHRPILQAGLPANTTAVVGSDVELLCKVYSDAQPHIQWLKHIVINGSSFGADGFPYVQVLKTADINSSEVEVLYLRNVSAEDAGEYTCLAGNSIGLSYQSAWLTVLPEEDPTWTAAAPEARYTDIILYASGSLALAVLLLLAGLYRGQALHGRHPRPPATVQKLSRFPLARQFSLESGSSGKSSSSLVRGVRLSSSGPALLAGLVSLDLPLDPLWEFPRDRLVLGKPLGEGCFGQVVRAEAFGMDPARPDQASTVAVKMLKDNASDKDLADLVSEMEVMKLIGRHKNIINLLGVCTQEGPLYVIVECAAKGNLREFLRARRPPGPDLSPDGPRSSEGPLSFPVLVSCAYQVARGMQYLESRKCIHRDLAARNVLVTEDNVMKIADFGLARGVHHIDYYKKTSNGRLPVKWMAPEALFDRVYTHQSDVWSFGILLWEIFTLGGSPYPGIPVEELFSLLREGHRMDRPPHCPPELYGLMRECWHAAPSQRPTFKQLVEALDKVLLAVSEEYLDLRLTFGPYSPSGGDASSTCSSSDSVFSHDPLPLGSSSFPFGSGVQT
Sequence of FGFR3 (P22607 23-806): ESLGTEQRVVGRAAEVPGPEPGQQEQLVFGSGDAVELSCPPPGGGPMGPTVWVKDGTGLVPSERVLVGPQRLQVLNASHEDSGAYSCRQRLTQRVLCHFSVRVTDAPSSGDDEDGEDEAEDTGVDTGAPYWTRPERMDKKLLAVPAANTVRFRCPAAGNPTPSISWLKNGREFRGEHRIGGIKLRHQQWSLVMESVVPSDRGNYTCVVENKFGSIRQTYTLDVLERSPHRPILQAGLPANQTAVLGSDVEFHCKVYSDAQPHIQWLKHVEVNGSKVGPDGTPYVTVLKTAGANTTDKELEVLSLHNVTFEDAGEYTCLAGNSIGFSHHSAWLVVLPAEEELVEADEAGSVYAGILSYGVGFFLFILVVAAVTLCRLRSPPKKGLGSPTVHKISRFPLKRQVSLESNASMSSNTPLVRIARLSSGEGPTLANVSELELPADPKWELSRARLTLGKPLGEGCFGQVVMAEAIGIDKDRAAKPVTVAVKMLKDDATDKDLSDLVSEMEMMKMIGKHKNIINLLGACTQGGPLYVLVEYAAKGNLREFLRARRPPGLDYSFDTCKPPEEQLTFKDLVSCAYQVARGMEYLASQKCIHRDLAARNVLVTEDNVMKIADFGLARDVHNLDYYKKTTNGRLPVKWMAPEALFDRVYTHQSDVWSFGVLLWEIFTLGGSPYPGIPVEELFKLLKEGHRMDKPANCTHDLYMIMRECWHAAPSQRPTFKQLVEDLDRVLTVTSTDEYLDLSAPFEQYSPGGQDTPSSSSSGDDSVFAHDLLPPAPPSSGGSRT

With `C=CC(=O)N1CC[C@H](Nc2ncc3cc(-c4c(Cl)c(OC)cc(OC)c4Cl)ccc3n2)C1` [Compound 5, (S)-1-(3-((6-(2,6-dichloro-3,5-dimethoxyphenyl)quinazolin-2-yl)amino)pyrrolidin-1-yl)propyl-2-en-1-one], the IC50 amounted to 5.4 nM on FGFR1; 5.5 nM on FGFR2; 18 nM at FGFR3; 175 nM at FGFR4; 153 nM in the test on Hep3B; 56 nM in the test on RT112/84. The IC50 with DMS114 amounted to 58 nM.

In the case of `C=CC(=O)N1C[C@@H](C)[C@H](Nc2ncc3cc(-c4c(Cl)c(OC)cc(OC)c4Cl)ccc3n2)C1` [Compound 20, 1-((3S,4R)-3-((6-(2,6-dichloro-3,5-dimethoxyphenyl)quinazolin-2-yl)amino)-4-methylpyrrolidin-1-yl)propyl-2-en-1-one], the IC50 on FGFR1 amounted to 15 nM; on FGFR2, 15 nM; on FGFR3, 34 nM; at FGFR4, 68 nM; with Hep3B, 50.2 nM; in the test on RT112/84, 77 nM. Also, in the test with DMS114, the IC50 came out at 113 nM.

Regarding `C=CC(=O)N1C[C@@H](Nc2ncc3cc(-c4c(Cl)c(OC)cc(OC)c4Cl)ccc3n2)C[C@H]1CO` [Compound 22, 1-((2S,4S)-4-((6-(2,6-dichloro-3,5-dimethoxyphenyl)quinazolin-2-yl)amino)-2-(hydroxymethyl)pyrrolidin-1-yl)prop-2-en-1-one], the IC50 was determined as 4.6 nM on FGFR1; 4.4 nM at FGFR2; 19 nM on FGFR3; 101 nM on FGFR4; 32.2 nM in the test on Hep3B; 40 nM in the test with RT112/84. In addition, the figures for the IC50 in the test with DMS114, in the test on AN3CA and in the test on SNU-16 were 25 nM, 59 nM and 11 nM, respectively.

On to `C=CC(=O)N1C[C@@H](Nc2ncc3cc(-c4c(Cl)c(OC)cc(OC)c4Cl)ccc3n2)C[C@@H]1CO` [Compound 23], for which the IC50 in the test on Hep3B amounted to 26 nM; with RT112/84 it was 50 nM; in the test with DMS114 it was 31 nM; with AN3CA it was 86 nM; in the test on SNU-16, 22 nM.

For `C=CC(=O)N1C[C@@H](Nc2ncc3cc(-c4c(Cl)c(OC)cc(OC)c4Cl)ccc3n2)C[C@H]1CF` [Compound 24, 1-((2S,4S)-4-((6-(2,6-dichloro-3,5-dimethoxyphenyl)quinazolin-2-yl)amino)-2-(fluoromethyl)pyrrolidin-1-yl)prop-2-en-1-one], the values for the IC50 with Hep3B, with RT112/84 and in the test on SNU-16 were 46 nM, 153 nM and 48 nM, respectively.

Turning to `C=CC(=O)N1C[C@H](O)[C@H](Nc2ncc3cc(-c4c(Cl)c(OC)cc(OC)c4Cl)ccc3n2)C1` [Compound 46], the figures for the IC50 at FGFR1, at FGFR2 and at FGFR3 were 5.8 nM, 8.2 nM and 22 nM, respectively.

As to `C=CC(=O)N1C[C@@H](CC)[C@H](Nc2ncc3cc(-c4c(Cl)c(OC)cc(OC)c4Cl)ccc3n2)C1` [Compound 48], the IC50 at FGFR1 is 17 nM; on FGFR2, 25 nM; at FGFR3, 75 nM.

Turning to `C=CC(=O)N1CC2(CC(Nc3ncc4cc(-c5c(Cl)c(OC)cc(OC)c5Cl)ccc4n3)C2)C1` [Compound 65, 1-(6-((6-(2,6-dichloro-3,5-dimethoxyphenyl)quinazolin-2-yl)amino)-2-azaspiro[3.3]heptan-2-yl)prop-2-en-1-one], the IC50 amounted to 66 nM in the test with Hep3B, 161 nM with RT112/84 and 92 nM with SNU-16.

Turning to `C=CC(=O)N1CC(Nc2ncc3cc(-c4c(Cl)c(OC)cc(OC)c4Cl)ccc3n2)c2ccccc21` (stereo not shown) [Compound 67], the IC50 on FGFR1 turned out to be 8 nM; at FGFR2, 56 nM; at FGFR4, 129 nM.
